Measurements from ChEMBL document CHEMBL1145522, “Recognition of trimethyllysine by a chromodomain is not driven by the hydrophobic effect” (Proc Natl Acad Sci U S A, 2007).

Assay: Binding affinity to Drosophila HP1 chromodomain by fluorescence polarization assay

- Kd: > 1000 µM
SMILES: C[C@H](N)C(=O)N[C@@H](CCCNC(=N)N)C(=O)N[C@H](C(=O)N[C@@H](CCCCN)C(=O)N[C@@H](CCC(N)=O)C(=O)N[C@H](C(=O)N[C@@H](C)C(=O)N[C@@H](CCCNC(=N)N)C(=O)N[C@@H](CCCCN)C(=O)N[C@@H](CO)C(=O)N[C@H](C(=O)NCC(=O)NCC(=O)N[C@@H](CCCCN)C(=O)N[C@@H](C)C(=O)N[C@@H](Cc1ccc(O)cc1)C(=O)O)[C@@H](C)O)[C@@H](C)O)[C@@H](C)O
